Reference: US20050130252A1, “Stabilized susceptibility tests of aerobic pathogens” (Wyeth Holdings Corporation, priority 2003, published 2005)
In brackets after ≈: the same amount, converted by molar mass. Where two headings read alike, the source gives them in different places.

Tested on: E. faecalis ATCC 29212
Experiment: Broth microdilution MIC
Assay type: cell-based, Enterococcus faecalis
Conditions: for MIC: Enterococcus faecalis
Description: The process for preparing susceptibility test medium are the following steps: • a. Preparing Mueller Hinton Broth II medium by adding 22 grams powdered media to 1.0 liter distilled water; • b. Autoclaving (121° C., 15 psi, 15 minutes) and cooling the medium; • c. Adding Oxyrase® up to about 10% final volume and keeping at 35-37° C. in an incubator for 30 minutes; • d. Adding about 50 μL to each well of a 96 well microtiter plate; • e. Weighing drug and adding broth to drug to bring up to about (standard 128 μg/ml); • f. Adding 50 μL of the drug to the first column of the titer plate; • g. Diluting by two-fold serial diluting across or down the plate. • h. Preparing a Prompt™ inoculum at 10^8 CFU/ml; • i. Diluting inoculum 1:100 in the broth at […] in 9.9 ml (1:100) is 10^6 colony forming units (CFU) forming the adjusted inoculum; • j. Adding 50 μL of the adjusted inoculum to the wells of the microtiter plate; • k. Incubating the plates at 35-37° C. for 18-22 hours; and • l. Reading, with the unaided eye, the MIC.
The in vitro activities of tigecycline and control antibiotics were determined by the broth microdilution method as recommended by the NCCLS. (National Committee for Clinical Laboratory Standards, 2003. Methods for Dilution Antimicrobial Susceptibility Tests for Bacteria That Grow Aerobically; Approved Standards: M7-A6, Sixth ed, vol. 23., National Committee for Clinical Laboratory Standards Wayne, Pa.) was used for the standard procedures. MBH with 5% lysed horse blood was used for testing S. pneumoniae and Haemophilus Test Medium was used for testing H. influenzae. Oxyrase® (Oxyrase Inc, Mansfield, Ohio) was used according to the manufacturer's instructions by adding 1 ml of Oxyrase® to 50 ml of media. Media age studies were performed by preparing MHB in multiple flasks, then storing the media under various conditions. MICs were usually performed in duplicate on each day of testing. Storage under anaerobic conditions was conducted in an anaerobic chamber (MACS MG 1000, Don Whitley Scientific LTD). The pH of the media was determined by pH meter (Corning 430). A comparison of the in vitro activity of tigecycline by agar and broth dilution methodolgies with and without Oxyrase® against clinical isolates is shown in Table 1.

[1] = Table 8, E. faecalis ATCC 29212, Mueller Hinton Broth + Oxyrase, n = 240

CN(C)c1cc(NC(=O)CNC(C)(C)C)c(O)c2c1C[C@H]1C[C@H]3[C@H](N(C)C)C(O)=C(C(N)=O)C(=O)[C@@]3(O)C(O)=C1C2=O [Tigecycline, tigecycline]
MIC (ATCC29212, 0 h, E. faecalis ATCC 29212, Day 0, Pre-prepared media, room temperature, N = 6): 0.25 µg/mL (≈ 0.427 µM)
MIC (ATCC29212, 0 h, E. faecalis ATCC 29212, Day 0, media Fresh from Powder 2° C., N = 6): 0.03 µg/mL (≈ 0.0512 µM)
MIC (ATCC29212, 0 h, E. faecalis ATCC 29212, Day 0, media Fresh from Powder, room temperature, N = 6): 0.03 µg/mL (≈ 0.0512 µM)
MIC (ATCC29212, 24 h, E. faecalis ATCC 29212, Day 1, Pre-prepared media, room temperature, N = 6): 0.25 µg/mL (≈ 0.427 µM)
MIC (ATCC29212, 24 h, E. faecalis ATCC 29212, Day 1, media Fresh from Powder 2° C., N = 6): 0.03 µg/mL (≈ 0.0512 µM)
MIC (ATCC29212, 24 h, E. faecalis ATCC 29212, Day 1, media Fresh from Powder, room temperature, N = 6): 0.03 to 0.06 µg/mL (≈ 0.0512 to 0.102 µM)
MIC (ATCC29212, 168 h, E. faecalis ATCC 29212, Day 7, Pre-prepared media, room temperature, N = 6): 0.25 µg/mL (≈ 0.427 µM)
MIC (ATCC29212, 168 h, E. faecalis ATCC 29212, Day 7, media Fresh from Powder 2° C., N = 6): 0.06 µg/mL (≈ 0.102 µM)
MIC (ATCC29212, 168 h, E. faecalis ATCC 29212, Day 7, media Fresh from Powder, room temperature, N = 6): 0.12 to 0.25 µg/mL (≈ 0.205 to 0.427 µM)
MIC (ATCC29212, 336 h, E. faecalis ATCC 29212, Day 14, Pre-prepared media, room temperature, N = 6): 0.25 to 0.5 µg/mL (≈ 0.427 to 0.854 µM)
MIC (ATCC29212, 336 h, E. faecalis ATCC 29212, Day 14, media Fresh from Powder 2° C., N = 6): 0.25 µg/mL (≈ 0.427 µM)
MIC (ATCC29212, 336 h, E. faecalis ATCC 29212, Day 14, media Fresh from Powder, room temperature, N = 6): 0.25 µg/mL (≈ 0.427 µM)
MIC (ATCC29212, 336 h, read-out: Minimal Inhibitory Concentration, E. faecalis ATCC29212, media Aged Aerobic (2 weeks at RT under room air), N = 4): 0.25 µg/mL (≈ 0.427 µM)
MIC (ATCC29212, 504 h, E. faecalis ATCC 29212, Day 21, Pre-prepared media, room temperature, N = 6): 0.25 to 0.5 µg/mL (≈ 0.427 to 0.854 µM)
MIC (ATCC29212, 504 h, E. faecalis ATCC 29212, Day 21, media Fresh from Powder 2° C., N = 6): 0.25 µg/mL (≈ 0.427 µM)
MIC (ATCC29212, 504 h, E. faecalis ATCC 29212, Day 21, media Fresh from Powder, room temperature, N = 6): 0.25 µg/mL (≈ 0.427 µM)
MIC (ATCC29212, 672 h, E. faecalis ATCC 29212, Day 28, Pre-prepared media, room temperature, N = 6): 0.25 to 0.5 µg/mL (≈ 0.427 to 0.854 µM)
MIC (ATCC29212, 672 h, E. faecalis ATCC 29212, Day 28, media Fresh from Powder 2° C., N = 6): 0.12 to 0.25 µg/mL (≈ 0.205 to 0.427 µM)
MIC (ATCC29212, 672 h, E. faecalis ATCC 29212, Day 28, media Fresh from Powder, room temperature, N = 6): 0.12 to 0.25 µg/mL (≈ 0.205 to 0.427 µM)
MIC (ATCC29212, read-out: Minimal Inhibitory Concentration (modal value), E. faecalis ATCC29212, Aged Media + Oxyrase, N = 8): 0.12 µg/mL
MIC (ATCC29212, read-out: Minimal Inhibitory Concentration (modal value), E. faecalis ATCC29212, Aged media, N = 8): 0.5 µg/mL (≈ 0.854 µM)
MIC (ATCC29212, read-out: Minimal Inhibitory Concentration (modal value), E. faecalis ATCC29212, Fresh Media + Oxyrase, N = 8): 0.06 µg/mL
MIC (ATCC29212, read-out: Minimal Inhibitory Concentration (modal value), E. faecalis ATCC29212, Freshly Prepared Media, N = 8): 0.06 to 0.12 µg/mL (≈ 0.102 to 0.205 µM)
MIC (ATCC29212, read-out: Minimal Inhibitory Concentration, E. faecalis ATCC 29212, 2% Oxyrase): 0.03 µg/mL (≈ 0.0512 µM)
MIC (ATCC29212, read-out: Minimal Inhibitory Concentration, E. faecalis ATCC29212, Aged Media + Oxyrase, N = 8): 0.12 µg/mL
MIC (ATCC29212, read-out: Minimal Inhibitory Concentration, E. faecalis ATCC29212, Aged media, N = 8): 0.25 to 0.5 µg/mL (≈ 0.427 to 0.854 µM)
MIC (ATCC29212, read-out: Minimal Inhibitory Concentration, E. faecalis ATCC29212, Commercially Prepared media, N = 4): 0.12 to 0.25 µg/mL (≈ 0.205 to 0.427 µM)
MIC (ATCC29212, read-out: Minimal Inhibitory Concentration, E. faecalis ATCC29212, Fresh Media + Oxyrase, N = 8): 0.06 µg/mL
MIC (ATCC29212, read-out: Minimal Inhibitory Concentration, E. faecalis ATCC29212, Freshly Prepared Media, N = 8): 0.06 to 0.12 µg/mL (≈ 0.102 to 0.205 µM)
MIC (ATCC29212, read-out: Minimal Inhibitory Concentration, E. faecalis ATCC29212, Freshly Prepared media, N = 4): 0.03 µg/mL (≈ 0.0512 µM)
MIC (ATCC29212, read-out: Minimal Inhibitory Concentration, E. faecalis ATCC 29212, MHB II + 0.05% Catalase): 0.5 µg/mL
MIC (ATCC29212, read-out: Minimal Inhibitory Concentration, E. faecalis ATCC 29212, MHB II + 0.05% L-ascorbic Acid): 1 µg/mL
MIC (ATCC29212, read-out: Minimal Inhibitory Concentration, E. faecalis ATCC 29212, MHB II + 0.05% L-cysteine): 0.12 µg/mL
MIC (ATCC29212, read-out: Minimal Inhibitory Concentration, E. faecalis ATCC 29212, MHB II + 0.05% Sodium Pyruvate): 0.25 µg/mL
MIC (ATCC29212, read-out: Minimal Inhibitory Concentration, E. faecalis ATCC 29212, MHB II + 0.05% Thioglycolate): 0.12 µg/mL
MIC (ATCC29212, read-out: Minimal Inhibitory Concentration, E. faecalis ATCC 29212, MHB II + 2% Oxyrase): 0.03 to 0.06 µg/mL
MIC (ATCC29212, read-out: Minimal Inhibitory Concentration, E. faecalis ATCC 29212, Mueller Hinton Broth II (Fresh)): 0.06 to 0.12 µg/mL (≈ 0.102 to 0.205 µM)
MIC (ATCC29212, read-out: Minimal Inhibitory Concentration, E. faecalis ATCC 29212, No Oxyrase): 0.25 µg/mL (≈ 0.427 µM)
MIC (ATCC29212, read-out: Minimal Inhibitory Concentration, E. faecalis ATCC29212, media Aged Anaerobic, N = 4): 0.03 µg/mL (≈ 0.0512 µM)
Number of Occurrences of MIC 0.03 ug/ml [1]: 5
Number of Occurrences of MIC 0.06 ug/ml [1]: 203
Number of Occurrences of MIC 0.12 ug/ml [1]: 28
Number of Occurrences of MIC 0.25 ug/ml [1]: 2
